Test results from US8859599B2, “Androgen receptor modulating compounds, preparation and uses thereof” (priority 2009, dated 2014).
Where two headings read alike, the source gives them in different places.

Assays:
[1] = target: T1, human androgen receptor (hAR) (Homo sapiens, UniProt P10275); test: hAR transactivation assay (ARE-luciferase reporter) in Cos-7 cells; assay type: cell-based; details: for inhibition of androgen-induced transcriptional activation (antagonistic activity): cells challenged with 10 nM R1881, compound at 10 μM
T1 construct: The cDNA coding hAR was cloned into the pSG5 expression vector as reported previously; expressed in transfected cells; host or cells: Cos-7 cells transiently transfected with pSG5-hAR
T1 sequence (P10275 1-920): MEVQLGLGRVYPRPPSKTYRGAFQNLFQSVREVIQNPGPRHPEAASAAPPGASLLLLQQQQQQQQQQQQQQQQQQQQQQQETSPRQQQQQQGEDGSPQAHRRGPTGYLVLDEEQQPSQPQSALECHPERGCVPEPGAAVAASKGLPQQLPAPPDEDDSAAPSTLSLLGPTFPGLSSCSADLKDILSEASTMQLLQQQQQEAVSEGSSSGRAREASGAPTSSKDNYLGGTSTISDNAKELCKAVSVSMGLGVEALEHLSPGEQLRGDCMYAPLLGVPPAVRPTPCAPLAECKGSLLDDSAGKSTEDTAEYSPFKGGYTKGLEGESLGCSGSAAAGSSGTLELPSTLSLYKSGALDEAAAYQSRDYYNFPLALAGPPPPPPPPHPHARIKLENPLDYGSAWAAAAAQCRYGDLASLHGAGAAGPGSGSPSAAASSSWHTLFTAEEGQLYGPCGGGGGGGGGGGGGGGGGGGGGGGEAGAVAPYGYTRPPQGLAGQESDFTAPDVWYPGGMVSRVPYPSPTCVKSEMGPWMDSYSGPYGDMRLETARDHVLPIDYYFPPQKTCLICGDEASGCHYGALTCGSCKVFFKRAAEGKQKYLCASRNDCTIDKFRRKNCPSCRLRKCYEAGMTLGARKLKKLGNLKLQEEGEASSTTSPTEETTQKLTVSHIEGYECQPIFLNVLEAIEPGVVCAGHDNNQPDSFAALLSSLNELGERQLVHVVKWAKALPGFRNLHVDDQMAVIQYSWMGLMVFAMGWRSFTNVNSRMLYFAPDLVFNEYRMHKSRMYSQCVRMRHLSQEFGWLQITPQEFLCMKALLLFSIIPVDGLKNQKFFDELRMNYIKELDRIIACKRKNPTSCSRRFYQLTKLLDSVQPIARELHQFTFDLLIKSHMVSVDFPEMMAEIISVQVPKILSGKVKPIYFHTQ
Experimental: The cDNA coding hAR was cloned into the pSG5 expression vector as reported previously [Chang, C. S., et al., Science (1988)240:324-326]. The 3416 construct (ARE-Luc), containing four copies of the wild-type slp-HRE2 (5′-TGGTCAgccAGTTCT-3′) (SEQ ID No. 1) was cloned in the NheI site in pTK-TATA-Luc [Verrijdt, G. et al., J. Biol. Chem. (2000)275:12298-12305].
For androgen-stimulated transcriptional analysis, 32×10^4 Cos-7 cells were plated in phenol red-free DMEM containing 5% charcoal-stripped serum. After 48 h, the cells were transfected by Superfect (Qiagen) with 0.3 μg of 3416-pTK-TATA-Luc construct, together with 1.5 μg of either pSG5-empty plasmid or pSG5-hAR expressing plasmid. After 18 h, transfected cells were stimulated for 24 h with 10 nM of the synthetic androgen, R1881 (from Perkin-Elmer; dissolved in 0.001% ethanol, final concentration), in the absence or presence of the indicated concentrations of synthetic compounds. When indicated, the synthetic compounds were added alone to the cell medium. […] It was dissolved in 0.001% (final concentration) ethanol. Control cells were treated with the vehicle alone. Lysates were prepared and the luciferase activity was measured using a luciferase assay system (Promega). The results were corrected using CH110-expressed beta-galactosidase activity (Amersham Biosciences) and luciferase activity was expressed as fold induction. Results were obtained from two or three different experiments, each performed in duplicate. Mean and SEM are shown.

LNCaP cells = test: Sulforhodamine B (SRB) in vitro chemosensitivity assay on LNCaP cells; assay type: cell-based; details: for cytostatic effect: suppression of cell growth: highest concentration tested
Experimental: Sulforhodamine B (SRB) assay was used according to the method by Skehan et al. (JNCI, 1990). Briefly, cells were collected by trypsinization, counted and plated at a density of 5,000 cells/well in 96-well flat-bottomed microtiter plates (100 μl of cell suspension/well). In the chemosensitivity assay, experiments were run in octuplicate, and each experiment was repeated three times. The optical density (OD) of cells was determined at a wavelength of 490 nm by a colorimetric plate reader.
Growth inhibition and cytocidal effect of drugs were calculated according to the formula reported by Monks et al. (JNCI, 1991): [(ODtreated−ODzero)/(ODcontrol−ODzero)]×100%, when ODtreated is > to ODzero. If ODtreated is above ODzero, treatment has induced a cytostatic effect, whereas if ODtreated is below ODzero, cell killing has occurred. The ODzero depicts the cell number at the moment of drug addition, the ODcontrol reflects the cell number in untreated wells and the ODtreated reflects the cell number in treated wells on the day of the assay. TUNEL Assay
The authors examined the antitumour activity of the compounds for which the synthesis is described above, in the hormone-sensitive prostate cancer cell line LNCaP. (R)-Bicalutamide and the novel compounds were tested at the increasing concentrations of […]. The highest dose used was chosen on the basis of the clinically achievable peak plasma concentration reported in the literature for bicalutamide (Cockshott I D. Clin Pharmacokinet. 2004; 43 (13) 855-78).
After 144-hr exposure time, the cytotoxic effect of the molecules was calculated according to the method of Monks et al. (Monks A, et al., J. Nat. Cancer Inst. 1991; 83: 757-66).

LNCaP-AR cells = test: TUNEL assay of apoptotic cells in LNCaP-AR; assay type: cell-based, human; details: 144 h, 20.0 μM
[2] = Homo sapiens, LNCaP cells, 144 h exposure, read-out: Growth inhibition (GI50)
[3] = LNCaP cells, 144 h exposure, n.r. = not reached
[4] = Homo sapiens, LNCaP, 144 h, read-out: Growth inhibition (GI50), LNCaP cells, 144 h exposure

## N#Cc1ccc(OCC(N)(Cc2ccccc2)C(=O)Nc2ccc(C#N)c(C(F)(F)F)c2)cc1 (stereo in doubt) [(R)-7c]
[1]; Casodex at 10 μM
  agonistic activity in presence of Casodex: inhibited
[1]; range between 10-100 nM
  increase of transcriptional activity of AR, compound alone: about 15 fold

## N#Cc1ccc(NC(=O)C(N)(Cc2ccccc2)CS(=O)(=O)c2ccc(F)cc2)cc1C(F)(F)F (stereo in doubt) [(S)-8]
LNCaP cells
  cytocidal effects by 50% (LC50): n.r.
LNCaP cells; [2]
  GI50: 10.4 µM
LNCaP cells; LNCaP cells, 144 h
  cytostatic effect: suppression of cell growth: suppress completely the cell growth

## N#Cc1ccc(NC(=O)C(N)(CS(=O)(=O)c2ccc(F)cc2)c2ccccc2)cc1C(F)(F)F (stereo in doubt) [(S)-9]
LNCaP cells; LNCaP cells, 144 h
  cytostatic effect: suppression of cell growth: suppress completely the cell growth
LNCaP cells; [3]
  cytocidal effects by 50% (LC50): n.r.
LNCaP cells; read-out: Growth inhibition (GI50), LNCaP cells, 144 h exposure
  GI50: 4 µM

## N#Cc1ccc(NC(=O)[C@](N)(Cc2ccccc2)CS(=O)(=O)c2ccc(F)cc2)cc1C(F)(F)F [(R)-8, (R)-2-amino-2-benzyl-N-(4-cyano-3-(trifluoromethyl)phenyl)-3-(4-fluorophenylsulfonyl)propanamide]
LNCaP cells; LNCaP cells, 144 h exposure
  cytocidal (cell killing) activity: cytocidal activity

## N#Cc1ccc(N2C(=O)[C@](Cc3ccccc3)(CS(=O)(=O)c3ccc(F)cc3)NC2=S)cc1C(F)(F)F [(R)-11]
[1]; authors' experimental conditions
  agonistic activity, compound alone: does not show agonistic activity
[1]
  inhibition of androgen-induced transcriptional activation (antagonistic activity): strong inhibition
LNCaP cells
  cytocidal effects by 50% (LC50): n.r.
LNCaP cells; [2]
  GI50: 8.5 µM
LNCaP cells; LNCaP cells, 144 h exposure
  cytocidal (cell killing) activity: cytocidal activity

## CS(=O)(=O)N[C@@](CS(=O)(=O)c1ccc(F)cc1)(C(=O)Nc1ccc(C#N)c(C(F)(F)F)c1)c1ccccc1 [(R)-12]
[1]
  inhibition of androgen-induced transcriptional activation (antagonistic activity): does not interfere
[1]; range between 10 nM-10 μM
  agonistic activity, compound alone: does not show agonistic activity

## N#Cc1ccc(N2C(=O)[C@@](CS(=O)(=O)c3ccc(F)cc3)(c3ccccc3)NC2=S)cc1C(F)(F)F [(R)-13, (R)-4-(4-((4-fluorophenylsulfonyl)methyl)-5-oxo-4-phenyl-2-thioxoimidazolidin-1-yl)-2-(trifluoromethyl)benzonitrile]
LNCaP cells
  cytocidal effects by 50% (LC50): n.r.
LNCaP cells; [2]
  GI50: 14 µM

## Cc1ccc(S(=O)(=O)N[C@@](C)(CS(=O)(=O)c2ccc(F)cc2)C(=O)Nc2ccc(C#N)c(C(F)(F)F)c2)cc1 [(R)-26]
[1]
  inhibition of androgen-induced transcriptional activation (antagonistic activity): does not show antagonistic activity
LNCaP cells; [4]
  GI50: 9.3 µM
LNCaP cells; [3]
  cytocidal effects by 50% (LC50): n.r.
LNCaP-AR cells
  apoptosis induction in the LNCaP derivative cell line versus LNCaP: more active

## C[C@@]1(CS(=O)(=O)c2ccc(F)cc2)NC(=S)N(c2ccc(C#N)c(C(F)(F)F)c2)C1=O [(R)-27]
LNCaP cells
  cytocidal effects by 50% (LC50): n.r.
LNCaP cells; [2]
  GI50: 15.2 µM

## C[C@@]1(CS(=O)(=O)c2ccc(F)cc2)NC(=O)N(c2ccc(C#N)c(C(F)(F)F)c2)C1=O [(R)-28, (R)-4-(4-((4-fluorophenylsulfonyl)methyl)-4-methyl-2,5-dioxoimidazolidin-1-yl)-2-(trifluoromethyl)benzonitrile]
LNCaP cells
  cytocidal effects by 50% (LC50): n.r.
LNCaP cells; [2]
  GI50: 14.9 µM

## C[C@]1(CS(=O)(=O)c2ccc(F)cc2)C(=O)N(c2ccc(C#N)c(C(F)(F)F)c2)C(=O)N1S(C)(=O)=O [(R)-29]
LNCaP cells
  cytocidal effects by 50% (LC50): n.r.
LNCaP cells; [2]
  GI50: 12.3 µM

## N#Cc1ccc(OC[C@]2(Cc3ccccc3)NC(=O)N(c3ccc(C#N)c(C(F)(F)F)c3)C2=O)cc1 [(S)-14e]
[1]; 100 nM
  increase of transcriptional activity of AR, compound alone: about 55 fold

## C[C@@](N)(CS(=O)(=O)c1ccc(F)cc1)C(=O)Nc1ccc(C#N)c(C(F)(F)F)c1 [(S)-23]
LNCaP cells; [4]
  GI50: 9.4 µM
LNCaP cells; [3]
  cytocidal effects by 50% (LC50): n.r.

## C[C@]1(CS(=O)(=O)c2ccc(F)cc2)NC(=O)N(c2ccc(C#N)c(C(F)(F)F)c2)C1=O [(S)-28]
LNCaP cells
  cytocidal effects by 50% (LC50): n.r.
LNCaP cells; [2]
  GI50: 1.8 µM

## C[C@@]1(CS(=O)(=O)c2ccc(F)cc2)C(=O)N(c2ccc(C#N)c(C(F)(F)F)c2)C(=O)N1S(C)(=O)=O [(S)-29]
LNCaP cells
  cytocidal effects by 50% (LC50): n.r.
LNCaP cells; [2]
  GI50: 12.5 µM

## C[C@@]1(CS(=O)(=O)c2ccc(F)cc2)C(=O)N(c2ccc(C#N)c(C(F)(F)F)c2)C(=S)N1S(C)(=O)=O [(S)-30]
LNCaP cells
  cytocidal effects by 50% (LC50): n.r.
LNCaP cells; LNCaP cells, 144 h exposure
  Growth inhibition (GI50): n.r.

## C[C@]1(CS(=O)(=O)c2ccc(F)cc2)N=C(SS(C)(=O)=O)N(c2ccc(C#N)c(C(F)(F)F)c2)C1=O [(S)-31]
LNCaP cells
  cytocidal effects by 50% (LC50): n.r.
LNCaP cells; LNCaP cells, 144 h exposure
  Growth inhibition (GI50): n.r.

## N#Cc1ccc(NC(=O)[C@](N)(Cc2ccc(F)cc2)c2ccccc2)cc1C(F)(F)F [(S)-36]
LNCaP cells
  cytocidal effects by 50% (LC50): n.r.
LNCaP cells; [2]
  GI50: 4.3 µM
LNCaP cells; LNCaP cells, 144 h
  cytostatic effect: suppression of cell growth: suppress completely the cell growth

## C[C@]1(O)CC[C@H]2[C@@H]3CCC4=CC(=O)CCC4=C3C=C[C@@]21C [R1881, methyltrienolone-17β-hydroxy-17-methyl-estra-4,9.11-trien-3-one, reference compound]
[1]; 10 nM, Cos-7 cells, ARE-reporter gene
  increase of AR-mediated transcriptional activation: about 11 fold
